These results are taken from patent US20230121926A1, “METHODS FOR TISSUE REGENERATION AND KITS THEREFOR” (THE BOARD OF TRUSTEES OF THE LELAND STANFORD JUNIOR …, priority 2020, published 2023).

Assay [1] concerns deep partial-thickness excisional wounds. Put plainly: Porcine deep partial-thickness excisional wound model. The class given is in vivo, red Duroc pigs. How it is done:
Porcine deep partial-thickness excisional wound model: Prior to operation, animals were administered oral amoxicillin 10 mg/kg for 24 hours. General anesthesia was administered by Veterinary Services personnel and was established with intramuscular telazol 6-8 mg/kg, administered once as a pre-anesthetic. Animals were then intubated using an endotracheal tube and maintained on 1.5-3% of inhaled isoflurane throughout the procedure. The hair on the back was clipped and skin was cleansed initially with Betadine© solution following by a 70% alcohol rinse. Excisional wounds were created with a standard electric Zimmer dermatome (Zimmer Biomet, Warsaw, Ind.). Up to eight wounds, approximately 5 cm×5 cm in size, were created on each lateral flank, with 3-5 cm intervals between wounds (FIG. 1A). Multiple dermatome passes were performed to create deep partial-thickness wounds of uniform 0.07 inch depth. The wounds were randomly assigned to receive either FAKI hydrogel (W_IF), blank hydrogel (‘placebo’, W_H), or no hydrogel (wounded control, W) (n=6-9 wounds per condition). Animals were given oral amoxicillin 10 mg/kg post-operatively twice a day for 5 days total. Wound dressings, including FAKI hydrogel patches, were changed every other day for the first three weeks after initial injury until POD 21 (FIG. 1C). Thereafter, dressings were changed twice per week until POD 90. Animals were subject to short-term sedation for each dressing change. The actual dose delivered to the wound was tested on porcine fresh wounds (red Duroc pigs). In a time-dependent study, the amount of VS-6062 detected at approximately 0.5 mm wound depth over 24 hours ranged from 30-100 microG/g tissue by weight. The amount of VS-6062 detected beyond 1 mm wound depth was less than 5 microG/g tissue. Wound closure, visual scar assessment, and viscoelastic analyses. Wounds were monitored photographically at each dressing change. Days to wound closure, defined as complete re-epithelialization without open wound area, were determined for each wound based on gross photographic assessment. Quantification of scar metrics were performed using a Visual Analog Scale (VAS) for 5 components (vascularity, pigmentation, observer comfort, acceptability, and contour) by a panel of four blinded scar experts. Total scores are calculated as a composite of all 5 scores; lower scores indicate improved scar appearance. A Cutometer (Dual MPA 580, Courage+Khazaka Electronic, Köln, Germany) was used to evaluate the firmness and elasticity of the healing wounds at POD 60. The cutometer measures the vertical deformation of the skin surface by applying a negative pressure (suction) through a small circular diameter (2 mm probe). Cutometer assessment is the gold standard to measure viscoelasticity in human patients. Deformation (suction) for two seconds followed by two seconds of relaxation (no suction) is applied for three cycles. The elasticity ratio (ability for tissue to return back to original setpoint) was measured during the relaxation period (R2 metric). Histological and immunofluorescent staining. […] Masson's Trichrome staining and Picrosirius Red staining were performed. Picrosirius Red-stained images were captured using polarized light microscopy (Leica DM5000 B upright microscope). Collagen fibers were also visualized using Second Harmonic Generation (SHG) on a Leica SP5 upright confocal multi-photon microscope using a […]. SHG images were captured with an excitation wavelength of 860 nm, a pulse length of approximately 100 fs, and an emission filter centered at 445 nm with a 20-nm bandwidth. Forward SHG was used to image fibroblasts and backward SHG was used to image in vivo tissue sections. Analysis of fiber alignment was performed on Picrosirius Red-stained images at 40× magnification using the custom software MatFiber, an intensity-gradient-detection algorithm for analysis of overall alignment of collagen fibers and stress fibers from multiple samples. […]

The test system of the next assay is dermal fibroblasts. The assay can be described thus: Fibroblast-populated 3D collagen scaffold under strain (alignment, contraction). The class given is cell-based, human. As for the experimental part: Mechanotransduction shifts human fibroblast heterogeneity. […] To confirm the translational potential of the results in the porcine model on the role of mechanotransduction in the fibrotic response, dermal fibroblasts isolated from human surgical patients were then evaluated. Cells were seeded within 3D collagen scaffolds at densities of 2.0 mg/mL collagen and 200,000 cells/mL (FIG. 2A). To artificially increase tissue forces, the mechanical strain applied to fibroblasts was precisely manipulated as described in Chen, K. et al, “Role of boundary conditions in determining cell alignment in response to stretch”, PNAS 115, 986-991, doi:10.1073/pnas.1715059115 (2018), the entire disclosure of which is hereby incorporated by reference in its entirety, and shown in FIG. 2B and FIG. 9A. […] The efficacy of this in vitro system to mimic the fibrogenic phenotype observed in healing wounds and resultant scar was confirmed. […] Fibroblast reorganization of ECM drives collagen remodeling and development of long, aligned collagen fibers characteristic of fibrosis. […]
Fibroblast-populated 3D collagen scaffold experiments. […] Nine Titanium (IV) oxide paint dots (Sigma-Aldrich) were applied on the surface of the central region of the gel (boxes in FIG. 9A) to track and quantify the imposed strains. […]

Setting [2] is: POD 60, versus untreated wounds.
Where [3] appears, read: porcine wound tissue, treated vs untreated.

Consider `CN(c1ncccc1CNc1nc(Nc2ccc3c(c2)CC(=O)N3)ncc1C(F)(F)F)S(C)(=O)=O` [VS-6062], for which the “regeneration of secondary structures (hair follicles, cutaneous glands)” value in assay [1] (Masson's Trichrome, POD 90 and POD 180) is “regrowth of hair follicles and other cutaneous glands”. Also, in assay [1] (setting [2]), the “wound elasticity (cutometer)” value was “increased elasticity” and the “wound firmness (cutometer)” value is recorded as “decreased firmness”. For the same molecule, the “intradermal adipocytes (Perilipin A staining)” value in assay [1] (POD 90, deep dermal layer) is “regeneration of Perilipin A-positive intradermal adipocytes”. Moreover, in assay [1] (controls healed after POD 24), the “healing earlier than wounds treated with standard dressings or empty hydrogels” value is “more than 10 days”. The “gross appearance of the treated wounds” value in assay [1] (difference in scarring evident as early as POD 40) was “normal appearing skin”. Further, the “collagen structure of healed wounds (Picrosirius Red)” value in assay [1] (pig, in vivo) is “basket weave-like collagen structure characteristic to unwounded porcine skin”. In assay [1] (setting [3]), the “protein expression of Collagen I (immunofluorescence)” value is “decreased”, the “protein expression of Collagen III (immunofluorescence)” value was “decreased”, the “protein expression of MMP1 (immunofluorescence)” value was “increased” and the “protein expression of MMP3 (immunofluorescence)” value is reported as “increased”. Besides, the “protein expression of alpha SMA (immunofluorescence)” value in assay [1] (setting [3]) is given as “decreased”. In addition, the “time at which wounds were fully healed” value in assay [1] (sustained release hydrogel scaffold, 5x5 cm wounds) was 14±2.3 postoperative day (POD). Besides, in assay [1] (trend), the CT-FIRE fiber count result is on record as “return number of fibers closer to unwounded skin”. Also, in the assay on dermal fibroblasts (10% uniaxial strain, 10 micromolar FAKI), the “fibroblast alignment under uniaxial strain” value is “aligned multi-directionally”. The “contraction assay: fibroblast remodeling of the ECM environment” value with dermal fibroblasts (collagen scaffolds) is on record as “hinders the fibroblasts from remodeling (R) the ECM environment”.
